Test results reported in patent US9308195B2, “Non-aqueous taxane formulations and methods of using the same” (Teikoku Pharma USA, Inc., priority 2012, dated 2016).

Assay: Solubility of anhydrous docetaxel in PEG 400 or PEG 300
Format: physicochemical
Conditions: per 1 g of PEG 300; ultrasonic dispersion for 5 minutes at 70-80° C.
Method: Formulations of anhydrous docetaxel and either PEG 400 or PEG 300 were prepared and mixed using ultrasonic dispersion for 5 minutes at 70-80° C. 1 g of PEG 400 dissolved 25 mg of anhydrous docetaxel. […] 1 g of PEG 300 dissolved 100 mg of anhydrous docetaxel. Accordingly, PEG 300 was able to better solubilize anhydrous docetaxel.

amount of anhydrous docetaxel dissolved by 1 g of PEG 300: ≥ 100 mg
SMILES: CC(=O)O[C@@]12CO[C@@H]1C[C@H](O)[C@@]1(C)C(=O)[C@H](O)C3=C(C)[C@@H](OC(=O)[C@H](O)[C@@H](NC(=O)OC(C)(C)C)c4ccccc4)C[C@@](O)([C@@H](OC(=O)c4ccccc4)[C@H]21)C3(C)C [anhydrous docetaxel, (2R,3S)-N-carboxy-3-phenylisoserine,Ntert-butyl ester, 13-ester with 5β-20-epoxy-1,2α,4,7β,10β,13α-hexahydroxytax-11-en-9-one 4-acetate 2-benzoate]
